In ChEMBL document CHEMBL2073893, “BBB transport and P-glycoprotein functionality using MDR1A (-/-) and wild-type mice. Total brain versus microdialysis concentration profiles of rhodamine-123” (Pharm Res, 1998):

Biological target: ATP-dependent translocase ABCB1 (Mus musculus, UniProt P21447)
Experiment: TP_TRANSPORTER: increase in brain concentration in mdr1a(-/-) mouse
Assay type: functional, organism-based
Conditions: in vivo

Chain of ATP-dependent translocase ABCB1 (P21447 whole entry): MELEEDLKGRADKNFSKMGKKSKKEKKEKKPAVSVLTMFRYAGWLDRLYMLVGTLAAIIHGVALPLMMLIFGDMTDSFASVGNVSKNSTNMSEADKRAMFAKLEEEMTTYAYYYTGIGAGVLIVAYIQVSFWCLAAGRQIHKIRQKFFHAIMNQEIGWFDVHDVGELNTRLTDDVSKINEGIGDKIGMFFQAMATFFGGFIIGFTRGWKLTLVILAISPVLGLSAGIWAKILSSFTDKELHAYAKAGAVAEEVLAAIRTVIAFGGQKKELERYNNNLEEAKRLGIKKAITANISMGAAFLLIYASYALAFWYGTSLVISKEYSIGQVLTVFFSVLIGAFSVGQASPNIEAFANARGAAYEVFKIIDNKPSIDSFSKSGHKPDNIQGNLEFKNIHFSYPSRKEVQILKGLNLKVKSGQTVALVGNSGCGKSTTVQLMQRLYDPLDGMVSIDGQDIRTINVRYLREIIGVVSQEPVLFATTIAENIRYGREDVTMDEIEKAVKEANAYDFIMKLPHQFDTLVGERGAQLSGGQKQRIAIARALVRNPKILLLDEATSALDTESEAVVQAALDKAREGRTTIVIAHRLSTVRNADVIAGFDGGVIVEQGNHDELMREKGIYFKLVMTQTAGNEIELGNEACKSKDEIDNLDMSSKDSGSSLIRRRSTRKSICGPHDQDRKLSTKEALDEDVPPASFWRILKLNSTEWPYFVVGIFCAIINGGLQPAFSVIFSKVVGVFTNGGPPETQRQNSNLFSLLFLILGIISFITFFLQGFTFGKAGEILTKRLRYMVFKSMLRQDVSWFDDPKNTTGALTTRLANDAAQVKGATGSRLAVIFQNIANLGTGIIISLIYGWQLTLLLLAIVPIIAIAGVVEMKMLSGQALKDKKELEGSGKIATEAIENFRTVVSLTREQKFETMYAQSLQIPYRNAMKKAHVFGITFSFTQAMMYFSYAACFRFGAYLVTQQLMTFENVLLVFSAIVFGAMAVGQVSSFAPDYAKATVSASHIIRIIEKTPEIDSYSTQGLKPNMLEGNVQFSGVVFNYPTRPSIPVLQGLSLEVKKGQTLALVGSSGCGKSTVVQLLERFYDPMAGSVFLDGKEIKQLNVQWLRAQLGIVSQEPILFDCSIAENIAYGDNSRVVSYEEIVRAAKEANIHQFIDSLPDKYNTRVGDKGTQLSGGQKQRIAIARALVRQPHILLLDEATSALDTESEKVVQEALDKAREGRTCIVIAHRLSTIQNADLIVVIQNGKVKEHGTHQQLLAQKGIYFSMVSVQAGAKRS

Activity: substrate [+]
Structure (SMILES): COC(=O)c1ccccc1-c1c2ccc(=N)cc-2oc2cc(N)ccc12.Cl [RHODAMINE123]
